Structures can show the parent of a compound that is named as a salt. Where a SMILES comes first, the peptide text is derived from it. Bridges are numbered along the chain shown (N, C = ends). [ ]: non-standard residue; d: D form. The star is where a group is joined. X1 = CC[C@H](C)CCCCC(=O)*; Dab = NCC[C@H](N)C(=O)O
Key:
[1] = Stability of analytes in spiked plasma samples under storage conditions; assay type: in vitro ADME, human; settings: for Measured value, Stored at -80℃ for 7 days / Measured value, Automatic sampler 15℃ for 24 h / Measured value, Freeze-thaw for 3 cycles / Measured value, At 4℃ for 12 h / Measured value, At room temperature for 6 h: HPLC-MS/MS, n = 5; for Measured value, Automatic sampler 15℃ for 24 h: automatic sampler 15 ℃ 24 h; for Measured value, Freeze-thaw for 3 cycles: frozen at -80 °C and thawed at room temperature; for Measured value, At 4℃ for 12 h: refrigerator 4 °C 12 h
Procedure: Plasma samples with low, medium, and high mass concentrations were prepared (the mass concentrations of colistin sulfate were 0.1, 1, and 8 µg/mL, respectively, and those of tigecycline were 0.05, 0.5, and 4 µg/mL, respectively). Five replicates of each concentration were prepared and placed in a refrigerator at 4 °C for 12 h, at room temperature for 6 h, and in an automatic sampler at 15 ℃ for 24 h. The samples were, on three occasions, frozen at − 80 °C and thawed at room temperature, and then placed in a − 80 °C refrigerator for seven days. The concentrations and RSDs of colistin sulfate and tigecycline in the plasma samples were calculated based on the accompanying standard curve of the day to evaluate their stabilities.

[2] = Plasma trough and peak concentrations in patients on intravenous polymyxin and tigecycline (HPLC-MS/MS); settings: human, in vivo, iv, iv
Excerpt: Plasma samples were collected from patients receiving simultaneous intravenous polymyxin and tigecycline treatment. Inclusion criteria: ① Patients receiving simultaneous intravenous polymyxin and tigecycline treatment; ② Age ≥ 18 years; ③ Patients who consent to the monitoring of polymyxin and tigecycline blood drug concentrations during treatment. Exclusion criteria: ① Pregnant or lactating women; ② Treatment duration < 3 days; ③ Local administration; ④ Blood dialysis treatment. Once the blood drug concentration reached a steady state, 3 ml of venous blood was collected before and 30 min after the seventh administration to measure the peak and trough concentrations. This study was conducted with approval from the Ethics Committee of Second Hospital of Hebei Medical University (2020-R551). This study was conducted in accordance with the declaration of Helsinki.
Two hundred microliters of the plasma sample were adopted, with 20 µL of the internal standard added, and it was vortexed for 20 s. Two hundred microliters of 5% trichloroacetic acid was added for acidification and vortexed for 10 s. Two hundred microliters of methanol was added for extraction, vortexed for 2 min, and centrifuged at 10,900 r/min for 5 min. Two hundred microliters of the supernatant were aspirated into the injection bottle, and 10 µL of the sample was injected for the HPLC–MS/MS analysis.
All patients received an initial dose of 100 mg and a maintenance dose of 50 mg q12h for tigecycline. Three milliliters of venous blood were collected before and after the seventh administration to measure the peak and trough concentrations of the drugs.

[3] = within 8 h after administration; no reference given; cited from earlier work
Excerpt: The PK process of the drug in the body is often affected in patients with serious diseases accompanied by microcirculation disorders, hypoproteinemia, liver and kidney insufficiency, and other special pathophysiological states. Large fluctuations in plasma drug concentrations are commonly observed in these cases. TDM can aid in the optimization of administration dosage, individualized dosing, and anti-infective efficacy. Since colistin sulfate has not undergone modern drug development procedures, the current pharmacokinetic data remain unclear, and the plasma concentration is closely correlate ...

[4] = plasma QC high, nominal colistin sulfate 8 µg/mL, tigecycline 4 µg/mL
[5] = plasma QC low, nominal colistin sulfate 0.1 µg/mL, tigecycline 0.05 µg/mL
[6] = plasma QC medium, nominal colistin sulfate 1 µg/mL, tigecycline 0.5 µg/mL

Q: Which results are given for CC[C@H](C)CCCCC(=O)N[C@@H](CCN)C(=O)N[C@H](C(=O)N[C@@H](CCN)C(=O)N[C@H]1CCNC(=O)[C@H]([C@@H](C)O)NC(=O)[C@H](CCN)NC(=O)[C@H](CCN)NC(=O)[C@H](CC(C)C)NC(=O)[C@@H](CC(C)C)NC(=O)[C@H](CCN)NC1=O)[C@@H](C)O [Colistin sulfate, colistin sulfate] (X1-[Dab]T[Dab][Dab][Dab][dL]L[Dab][Dab]T; lactam 4-C)?
A: Measured value, Stored at -80℃ for 7 days ([1]; plasma QC high, nominal colistin sulfate 8 µg/mL, tigecycline 4 µg/mL, -80 °C 7 days): 8.30 ± 0.32 µg/mL; Measured value, Automatic sampler 15℃ for 24 h [1, 4]: 8.17 ± 0.19 µg/mL; Measured value, Freeze-thaw for 3 cycles [1, 4]: 8.70 ± 0.54 µg/mL; Measured value, At 4℃ for 12 h [1, 4]: 8.23 ± 0.61 µg/mL; Measured value, At room temperature for 6 h ([1]; plasma QC high, nominal colistin sulfate 8 µg/mL, tigecycline 4 µg/mL, room temperature 6 h): 8.26 ± 0.30 µg/mL; Measured value, Stored at -80℃ for 7 days ([1]; plasma QC low, nominal colistin sulfate 0.1 µg/mL, tigecycline 0.05 µg/mL, -80 °C 7 days): 0.10 ± 0.00 µg/mL; Measured value, Automatic sampler 15℃ for 24 h [1, 5]: 0.10 ± 0.00 µg/mL; Measured value, Freeze-thaw for 3 cycles [1, 5]: 0.09 ± 0.00 µg/mL; Measured value, At 4℃ for 12 h [1, 5]: 0.09 ± 0.01 µg/mL; Measured value, At room temperature for 6 h ([1]; plasma QC low, nominal colistin sulfate 0.1 µg/mL, tigecycline 0.05 µg/mL, room temperature 6 h): 0.10 ± 0.00 µg/mL; Measured value, Stored at -80℃ for 7 days ([1]; plasma QC medium, nominal colistin sulfate 1 µg/mL, tigecycline 0.5 µg/mL, -80 °C 7 days): 0.98 ± 0.09 µg/mL; Measured value, Automatic sampler 15℃ for 24 h [1, 6]: 0.93 ± 0.01 µg/mL; Measured value, Freeze-thaw for 3 cycles [1, 6]: 1.04 ± 0.04 µg/mL; Measured value, At 4℃ for 12 h [1, 6]: 0.93 ± 0.04 µg/mL; Measured value, At room temperature for 6 h ([1]; plasma QC medium, nominal colistin sulfate 1 µg/mL, tigecycline 0.5 µg/mL, room temperature 6 h): 1.00 ± 0.05 µg/mL; stability under the above conditions ([1]; plasma samples, 4 °C 12 h, room temperature 6 h, autosampler 15 ℃ 24 h, 3 freeze-thaw cycles, -80 °C 7 days): good stability; level at 0.5 h ([2]; both, peak concentration of colistin sulfate, range over patients, 12 adult patients, steady state, after 7th administration, plasma, HPLC-MS/MS): 890 to 4560 ng/mL; Cmax ([2]; female, 500000 IU): 890 ng/mL; administered dose excreted in the urine [3]: 40%

— article PMC10787398, “Simultaneous determination of colistin sulfate and tigecycline in human plasma by liquid chromatography-tandem mass spectrometry method” (BMC Chemistry, 2024)
